# Measured values from publication PMC11320581 (ACS Infectious Diseases, 2024).
# What was measured:
# [1] = tested on: B. anthracis gyrase; format: biochemical, Bacillus anthracis
# [2] = target: E. coli gyrase (Escherichia coli, UniProt P0AES4+P0AES6); format: biochemical
# [3] = tested on: M. tuberculosis gyrase; conditions: cited from earlier work
# Sequence of E. coli gyrase (P0AES4 whole entry, one chain of several): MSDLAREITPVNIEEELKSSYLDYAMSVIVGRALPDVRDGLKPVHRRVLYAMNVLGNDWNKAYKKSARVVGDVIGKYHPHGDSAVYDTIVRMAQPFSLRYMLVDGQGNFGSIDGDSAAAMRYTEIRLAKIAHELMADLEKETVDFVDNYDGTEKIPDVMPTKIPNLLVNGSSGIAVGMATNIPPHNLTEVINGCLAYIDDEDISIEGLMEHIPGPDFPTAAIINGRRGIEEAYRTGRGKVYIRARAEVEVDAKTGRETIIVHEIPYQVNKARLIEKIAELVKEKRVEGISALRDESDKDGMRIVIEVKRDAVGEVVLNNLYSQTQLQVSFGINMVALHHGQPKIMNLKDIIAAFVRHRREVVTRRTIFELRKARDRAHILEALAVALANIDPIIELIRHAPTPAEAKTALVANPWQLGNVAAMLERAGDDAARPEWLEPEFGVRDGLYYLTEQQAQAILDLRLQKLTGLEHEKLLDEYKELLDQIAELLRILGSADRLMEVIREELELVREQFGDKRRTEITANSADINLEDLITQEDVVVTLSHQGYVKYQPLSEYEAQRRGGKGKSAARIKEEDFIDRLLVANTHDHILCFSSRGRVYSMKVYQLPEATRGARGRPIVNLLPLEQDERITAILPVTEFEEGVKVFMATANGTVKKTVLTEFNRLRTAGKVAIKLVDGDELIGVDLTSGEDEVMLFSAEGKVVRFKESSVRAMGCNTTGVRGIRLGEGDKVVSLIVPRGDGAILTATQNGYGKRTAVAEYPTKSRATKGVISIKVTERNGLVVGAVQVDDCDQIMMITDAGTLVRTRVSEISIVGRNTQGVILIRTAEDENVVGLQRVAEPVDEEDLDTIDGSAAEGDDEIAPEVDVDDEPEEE
Compound,double-stranded DNA breaks with gyrase relative to topoisomerase IV [1] [times],single-stranded compared with double-stranded DNA breaks with gyrase [1],total DNA breaks with gyrase relative to topoisomerase IV [1],double-stranded DNA breaks with gyrase relative to topoisomerase IV [2] [times],single-stranded compared with double-stranded DNA breaks with gyrase [2],total DNA breaks with gyrase relative to topoisomerase IV [2],DNA cleavage mediated by M. tuberculosis gyrase compared with zoliflodacin [3]
"C[C@@H]1CN2c3c(cc4c(N5C(=O)OC[C@@H]5C)noc4c3F)CC3(C(=O)NC(=O)NC3=O)[C@H]2[C@H](C)O1 [zoliflodacin, Zoliflodacin]",~2,more gyrase-mediated single-stranded than double-stranded DNA breaks,2.5 to 3 times,~2,more gyrase-mediated single-stranded than double-stranded DNA breaks,2.5 to 3 times,–
CC1CN2c3c(cc4c(OCC5CCC(=O)N5)noc4c3F)CC3(C(=O)NC(=O)NC3=O)C2C(C)O1 (centres unmarked) [H3D-005722],–,higher levels of single-stranded than double-stranded DNA breaks,higher levels of total DNA breaks mediated by gyrase over topoisomerase IV,–,higher levels of single-stranded than double-stranded DNA breaks,higher levels of total DNA breaks mediated by gyrase over topoisomerase IV,higher levels
